Laboratory results: ChEMBL document CHEMBL1201862, “PubChem BioAssay data set” (2004)
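These data come from cells grown in 96-well plates and exposed to compound for 48 hours at five concentrations. GI50: concentration for 50% inhibition of growth.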 Activity calls are given as the source filed them. Cut-off read from the data, not from the text of the source: active = GI50 up to about 1.1 µM and inactive = higher.

What was measured:
Test in all cases: growth of human tumour cells (NCI), 48 h
[1] = system: HCC 2998
[2] = system: HCT-15
[3] = system: Malme-3M
[4] = system: SW-620
[5] = system: SK-MEL-28
[6] = system: HOP-92
[7] = system: MDA-MB-435
[8] = system: HOP-62
[9] = system: HT-29
[10] = system: SF-539
[11] = system: SF-268
[12] = system: U-251
[13] = system: OVCAR-3
[14] = system: NCI-H522
[15] = system: SK-MEL-2
[16] = system: CAKI-1
[17] = system: COLO 205
[18] = system: CCRF-CEM
[19] = system: OVCAR-8
[20] = system: KM-20L2

| SMILES | GI50 [1] | GI50 [2] [µM] | GI50 [3] | GI50 [4] | GI50 [5] | GI50 [6] | GI50 [7] | GI50 [8] | GI50 [9] | GI50 [10] | GI50 [11] | GI50 [12] | GI50 [13] | GI50 [14] | GI50 [15] | GI50 [16] | GI50 [17] | GI50 [18] | GI50 [19] | GI50 [20] |
| --- | --- | --- | --- | --- | --- | --- | --- | --- | --- | --- | --- | --- | --- | --- | --- | --- | --- | --- | --- | --- |
| c1cc(CSSCc2ccncc2)ccn1 | 22.9 µM (inactive) | 19.4 | 24.9 µM (inactive) | 6.27 µM (inactive) | 64 µM (inactive) | 25.9 µM (inactive) | 20.6 µM (inactive) | 46.2 µM (inactive) | 24.2 µM (inactive) | 8.02 µM (inactive) | 28.4 µM (inactive) | 23.3 µM (inactive) | 33.6 µM (inactive) | 12.9 µM (inactive) | 27.9 µM (inactive) | 29.5 µM (inactive) | 8.11 µM (inactive) | 1.24 µM (inactive) | 21.7 µM (inactive) |  |
| O=C(c1ccc(Cl)cc1)c1cnc(Nc2ccccc2Cl)s1 | 29 µM (inactive) | 22.8 | 19 µM (inactive) | 40.1 µM (inactive) | 16.6 µM (inactive) | 27.2 µM (inactive) | 32.6 µM (inactive) | 25.1 µM (inactive) | 27.1 µM (inactive) | 27.5 µM (inactive) | 26.4 µM (inactive) | 28.1 µM (inactive) | 18.3 µM (inactive) | 23 µM (inactive) | 15.6 µM (inactive) | 17.3 µM (inactive) | 37 µM (inactive) | > 100 µM (inactive) | 29.2 µM (inactive) |  |
| O=C(O)CCCSc1nc2ccccc2s1 | > 100 µM (inactive) | > 100 | > 100 µM (inactive) | > 100 µM (inactive) | > 100 µM (inactive) | > 100 µM (inactive) | > 100 µM (inactive) | > 100 µM (inactive) | > 100 µM (inactive) | > 100 µM (inactive) | > 100 µM (inactive) | > 100 µM (inactive) | > 100 µM (inactive) | > 100 µM (inactive) | > 100 µM (inactive) | > 100 µM (inactive) | > 100 µM (inactive) | > 100 µM (inactive) | > 100 µM (inactive) |  |
| O=C(/C=C(\S/C=C(/c1ccccc1)N1CCn2c(C(=O)c3ccccc3)c(C(=O)c3ccccc3)c(C(=O)c3ccccc3)c21)C(=O)c1ccccc1)c1ccccc1 | > 10 µM (inactive) | > 10 | > 10 µM (inactive) | > 10 µM (inactive) | > 10 µM (inactive) | > 10 µM (inactive) | > 10 µM (inactive) | > 10 µM (inactive) | > 10 µM (inactive) | > 10 µM (inactive) | > 10 µM (inactive) | > 10 µM (inactive) | > 10 µM (inactive) | > 10 µM (inactive) | > 10 µM (inactive) | > 10 µM (inactive) | > 10 µM (inactive) | > 10 µM (inactive) | > 10 µM (inactive) |  |
| O=C(c1ccc(O)c([N+](=O)[O-])c1)c1ccc(O)c([N+](=O)[O-])c1 | > 100 µM (inactive) | > 100 | 37 µM (inactive) | 55.6 µM (inactive) | 47.2 µM (inactive) | 24 µM (inactive) | 20.8 µM (inactive) | > 100 µM (inactive) | > 100 µM (inactive) | 53.5 µM (inactive) | > 100 µM (inactive) | > 100 µM (inactive) | > 100 µM (inactive) | > 100 µM (inactive) | > 100 µM (inactive) | > 100 µM (inactive) | > 100 µM (inactive) | 31.9 µM (inactive) | > 100 µM (inactive) |  |
| CCCCCC(=O)Nc1[nH]nnc1C(N)=O | > 100 µM (inactive) | > 100 | > 100 µM (inactive) | > 100 µM (inactive) | > 100 µM (inactive) | 92.5 µM (inactive) | > 100 µM (inactive) | > 100 µM (inactive) | > 100 µM (inactive) | > 100 µM (inactive) | > 100 µM (inactive) | > 100 µM (inactive) | > 100 µM (inactive) | > 100 µM (inactive) | > 100 µM (inactive) | > 100 µM (inactive) | > 100 µM (inactive) | > 100 µM (inactive) | > 100 µM (inactive) |  |
| CCOC(=O)CC[C@@H](NC(=O)c1ccc(NCc2ccc3nc(OC)c(OC)nc3c2)cc1)C(=O)OCC | 33.6 µM (inactive) | > 87.3 | 19.5 µM (inactive) | 80.7 µM (inactive) | 16.1 µM (inactive) | 11.4 µM (inactive) | 31.4 µM (inactive) | > 77.4 µM (inactive) | > 72.8 µM (inactive) | 18.5 µM (inactive) | 33.4 µM (inactive) | > 100 µM (inactive) | 17.3 µM (inactive) | 19.9 µM (inactive) | 18.1 µM (inactive) | > 83.9 µM (inactive) | 28.6 µM (inactive) | 32.6 µM (inactive) | > 100 µM (inactive) |  |
| CC(=O)c1cccc2c1CC1(C2)Cc2ccc3c(c2C1=O)CCC3 (stereo not drawn) | 15 µM (inactive) | 33.6 | 14.3 µM (inactive) | 55.2 µM (inactive) | 42.1 µM (inactive) | 12.6 µM (inactive) | 32.1 µM (inactive) | 54 µM (inactive) | 23.1 µM (inactive) | 82.2 µM (inactive) | 40.7 µM (inactive) | 47.1 µM (inactive) | 23.5 µM (inactive) | 17 µM (inactive) | 26.2 µM (inactive) | 48 µM (inactive) | 26.5 µM (inactive) | 34.8 µM (inactive) | 57.1 µM (inactive) |  |
| CCOC(=O)C(O)Cc1cnc2ccccc2n1 (stereo not drawn) | > 100 µM (inactive) | > 100 | > 100 µM (inactive) | > 100 µM (inactive) | > 100 µM (inactive) | > 100 µM (inactive) | > 100 µM (inactive) | > 100 µM (inactive) | > 100 µM (inactive) | > 100 µM (inactive) | > 100 µM (inactive) | > 100 µM (inactive) | > 100 µM (inactive) | 79.3 µM (inactive) | > 100 µM (inactive) | > 100 µM (inactive) | > 100 µM (inactive) | 44.9 µM (inactive) | > 100 µM (inactive) |  |
| O=[N+]([O-])c1cccc2nc3ccccc3c(NCCC[N+]3([O-])CCOCC3)c12 | 0.0128 µM (active) | 1.36 | 0.162 µM (active) | 0.131 µM (active) | 0.29 µM (active) | 0.0935 µM (active) | 0.157 µM (active) | 0.119 µM (active) | 0.0859 µM (active) | 0.275 µM (active) | 0.164 µM (active) | 0.209 µM (active) | 0.17 µM (active) | 0.0631 µM (active) | 0.175 µM (active) | 2.65 µM (inactive) | 0.0731 µM (active) | 0.0933 µM (active) | 0.21 µM (active) |  |
| Nc1nc(SCc2ccc([N+](=O)[O-])cc2)nc2c1ncn2C1OC(CO)C(O)C1O (stereo not drawn) | > 100 µM (inactive) | > 100 | > 100 µM (inactive) | > 100 µM (inactive) | > 100 µM (inactive) |  |  | > 100 µM (inactive) | > 100 µM (inactive) |  | > 100 µM (inactive) | > 100 µM (inactive) | > 100 µM (inactive) | 89.5 µM (inactive) |  |  | > 100 µM (inactive) | > 100 µM (inactive) | > 100 µM (inactive) | > 100 µM (inactive) |
| CC1CNC(c2ccc(COc3ccc(C4=NC(C)CN4)cc3)cc2)=N1 (stereo not drawn) | 46.5 µM (inactive) | > 100 | 27.6 µM (inactive) | 67.9 µM (inactive) | 41.8 µM (inactive) | > 100 µM (inactive) | 61 µM (inactive) | 32.8 µM (inactive) | > 100 µM (inactive) | 54.8 µM (inactive) | 54.3 µM (inactive) | 28.5 µM (inactive) | 34.9 µM (inactive) | 39 µM (inactive) | 18.6 µM (inactive) | > 100 µM (inactive) | > 100 µM (inactive) | 59.6 µM (inactive) | 72.6 µM (inactive) |  |
| CCCCCC(/C=C/C1CCC(=O)C1)OCOCCOC (stereo not drawn) | 64.4 µM (inactive) | 31.1 | > 78.9 µM (inactive) | 29.8 µM (inactive) | > 77.3 µM (inactive) | 24.2 µM (inactive) | 33.2 µM (inactive) | > 100 µM (inactive) | 23.4 µM (inactive) | 19.8 µM (inactive) | 29.3 µM (inactive) | 38.1 µM (inactive) | 41.4 µM (inactive) | 17.1 µM (inactive) | 64.6 µM (inactive) | 31.5 µM (inactive) | 48.8 µM (inactive) | 35.3 µM (inactive) | 33.9 µM (inactive) |  |
| CC(=O)OCC1OC(n2c(=S)n(-c3ccccc3)c(=O)c3cc(Br)ccc32)C(OC(C)=O)C(OC(C)=O)C1OC(C)=O (stereo not drawn) | > 100 µM (inactive) | > 100 |  | > 100 µM (inactive) | > 100 µM (inactive) |  |  | > 100 µM (inactive) | > 100 µM (inactive) | > 100 µM (inactive) | > 100 µM (inactive) | > 100 µM (inactive) | > 100 µM (inactive) | > 100 µM (inactive) |  | > 100 µM (inactive) | > 100 µM (inactive) | > 100 µM (inactive) | > 100 µM (inactive) | > 100 µM (inactive) |
| COc1ccc(-c2oc3cc(OC)c(OC)c(OC)c3c(=O)c2OC)cc1OC [HEXAMETHOXYFLAVONE] | > 100 µM (inactive) | > 100 | > 100 µM (inactive) | > 100 µM (inactive) | > 100 µM (inactive) | 16.4 µM (inactive) | > 100 µM (inactive) | > 100 µM (inactive) | > 100 µM (inactive) | > 100 µM (inactive) | > 100 µM (inactive) | > 100 µM (inactive) | > 100 µM (inactive) | > 100 µM (inactive) | > 100 µM (inactive) | > 100 µM (inactive) | > 100 µM (inactive) | > 100 µM (inactive) | > 100 µM (inactive) |  |
